In PubChem BioAssay (NCI):
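Grown in 96-well plates, cells were treated for 48 hours with each compound at five concentrations. Insufficient inhibition: endpoint recorded as highest concentration tested. GI50: concentration for 50% inhibition of growth. TGI denotes the concentration required for complete inhibition of growth.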

What was measured:
Test in all cases: growth of human tumour cells (NCI), 48 h
T-47D breast = tested on: T-47D breast
HCC-2998 colon = tested on: HCC-2998 colon
K-562 leukemia = tested on: K-562 leukemia
TK-10 renal = tested on: TK-10 renal
SK-MEL-5 melanoma = tested on: SK-MEL-5 melanoma
OVCAR-5 ovarian = tested on: OVCAR-5 ovarian
NCI-H522 lung = tested on: NCI-H522 lung
OVCAR-4 ovarian = tested on: OVCAR-4 ovarian
HCT-15 colon = tested on: HCT-15 colon
MDA-MB-231 breast = tested on: MDA-MB-231 breast
HT29 colon = tested on: HT29 colon
HCT-116 colon = tested on: HCT-116 colon
RPMI-8226 leukemia = tested on: RPMI-8226 leukemia
HOP-62 NSCLC = tested on: HOP-62 NSCLC
MOLT-4 leukemia = tested on: MOLT-4 leukemia
NCI/ADR-RES ovarian = tested on: NCI/ADR-RES ovarian
NCI-H226 lung = tested on: NCI-H226 lung
EKVX NSCLC = tested on: EKVX NSCLC
A498 renal = tested on: A498 renal
A549 NSCLC = tested on: A549 NSCLC
MALME-3M melanoma = tested on: MALME-3M melanoma
OVCAR-8 ovarian = tested on: OVCAR-8 ovarian
U251 CNS = tested on: U251 CNS
MDA-MB-435 = tested on: MDA-MB-435
LOX IMVI melanoma = tested on: LOX IMVI melanoma
NCI-H460 lung = tested on: NCI-H460 lung
SR leukemia = tested on: SR leukemia
MCF7 breast = tested on: MCF7 breast

Q: What does the source list for `CCN1C(=O)N(c2ccccc2)C2NC(=S)N(/N=C/C=C/c3ccccc3OC)C21` (stereo unspecified)?
A: GI50 (T-47D breast): 4120 nM; TGI (T-47D breast): > 100000 nM; GI50 (HCC-2998 colon): 111 nM; TGI (HCC-2998 colon): > 100000 nM; GI50 (K-562 leukemia): 66.2 nM; TGI (K-562 leukemia): > 100000 nM; GI50 (TK-10 renal): 23300 nM; TGI (TK-10 renal): > 100000 nM; GI50 (SK-MEL-5 melanoma): 99 nM; TGI (SK-MEL-5 melanoma): 607 nM; GI50 (OVCAR-5 ovarian): 170 nM; TGI (OVCAR-5 ovarian): > 86200 nM; GI50 (NCI-H522 lung): 40.9 nM; TGI (NCI-H522 lung): 189 nM; GI50 (OVCAR-4 ovarian): 263 nM; TGI (OVCAR-4 ovarian): > 67000 nM; GI50 (HCT-15 colon): 102 nM; TGI (HCT-15 colon): > 100000 nM; GI50 (MDA-MB-231 breast): 92.1 nM; TGI (MDA-MB-231 breast): 5130 nM; GI50 (HT29 colon): 111 nM; TGI (HT29 colon): > 100000 nM; GI50 (HCT-116 colon): 105 nM; TGI (HCT-116 colon): > 32700 nM; GI50 (RPMI-8226 leukemia): 126 nM; TGI (RPMI-8226 leukemia): 14200 nM; GI50 (HOP-62 NSCLC): 127 nM; TGI (HOP-62 NSCLC): > 58500 nM; GI50 (MOLT-4 leukemia): 128 nM; TGI (MOLT-4 leukemia): > 100000 nM; GI50 (NCI/ADR-RES ovarian): 78.2 nM; TGI (NCI/ADR-RES ovarian): > 72400 nM; GI50 (NCI-H226 lung): 300 nM; TGI (NCI-H226 lung): > 40000 nM; GI50 (EKVX NSCLC): 174 nM; TGI (EKVX NSCLC): > 100000 nM; GI50 (A498 renal): 31.1 nM; TGI (A498 renal): 653 nM; GI50 (A549 NSCLC): 121 nM; TGI (A549 NSCLC): > 100000 nM; GI50 (MALME-3M melanoma): 722 nM; TGI (MALME-3M melanoma): > 100000 nM; GI50 (OVCAR-8 ovarian): 118 nM; TGI (OVCAR-8 ovarian): > 84300 nM; GI50 (U251 CNS): 106 nM; TGI (U251 CNS): > 43800 nM; GI50 (MDA-MB-435): 35.6 nM; TGI (MDA-MB-435): 155 nM; GI50 (LOX IMVI melanoma): 109 nM; TGI (LOX IMVI melanoma): > 69500 nM; GI50 (NCI-H460 lung): 111 nM; TGI (NCI-H460 lung): > 36200 nM; GI50 (SR leukemia): 86 nM; TGI (SR leukemia): > 48500 nM; GI50 (MCF7 breast): 94.2 nM; TGI (MCF7 breast): > 64300 nM
